Patent US20090275583A1, “ANTIVIRAL COMPOUNDS AND USE THEREOF” (Myriad Genetics, Incorporated, priority 2006, published 2009)
Read-outs that look alike come from different tables or passages of the source.

Experiments:
[1] = system: HIV-1 laboratory strain, NL4-3; assay: MT-4 cytoprotection assay; assay type: cell-based
Experimental: The HTLV-1 transformed T cell line, MT-4, is highly susceptible to HIV-1 infection. Anti-HIV-1 agents were evaluated in this target cell line by protection from the HIV-induced cytopathic effect. In this assay, viability of both HIV-1 and mock-infected cells was assessed in a […] assay that monitors the ability of metabolically-active cells to reduce the tetrazolium salt WST-1. Cytoprotection by antiviral compounds is indicated by the positive readout of increased WST-1 cleavage.
Briefly, exponentially growing MT-4 cells were mock-infected or batch-infected with the HIV-1 laboratory strain, NL4-3, at a multiplicity of infection of 0.0005. Following a two hour infection, the cells were washed to remove unbound virus and plated in the presence of increasing concentrations of compound. After four days incubation, cytoprotection in the infected cells and compound toxicity in mock-infected cells were analyzed using the WST-1 assay.

HIV-1NL4-3 = assay: P4-MAGI assay; assay type: cell-based
Description: P4 cells were used to test the effects of compounds on virus fusion activity. P4 cells are HIV-1 infectable CD4^+ HeLa cells that bear the bacterial lacZ gene under the control of a minimal HIV-1 LTR. Charneau, et. al., J. Mol. Biol. 241:651-662 (1994). When these cells are infected with HIV-1, β-galactosidase is expressed due to Tat activation of the viral LTR. In this assay, P4 cells were infected with the laboratory adapted strain HIV-1NL4-3 at a multiplicity of infection of 1 in the presence of DEAE-Dextran. Immediately after addition of virus to the cells, increasing concentrations of compound were added to the cells. […] The effect on cell viability (TC50, concentration of compound that inhibits growth by 50%) was determined in mock-infected cells with the WST-1 Cell Proliferation Reagent (Roche Diagnostics).

[2] = Human immunodeficiency virus 1, NL43, MT4, 96 h, MT-4 cells, four days incubation, WST-1 readout, read-out: MT4 EC50
[3] = Human immunodeficiency virus 1, NL43, less than about 100 nm, read-out: MT-4 assay EC50 (concentration of compound that reduces the virus induced cytopathic effect by 50%)
[4] = Human immunodeficiency virus 1, 24 h, P4 cells, 24 hour incubation, β-galactosidase expression, read-out: P4-MAGI IC50
[5] = Human immunodeficiency virus 1, text statement, less than about 100 nm, read-out: P4-MAGI assay IC50

Row | Structure (SMILES) | EC50 [1, 2] | EC50 [1, 3] | IC50 (HIV-1NL4-3; [4]) | IC50 (HIV-1NL4-3; [5])
1 | C=C(C)[C@@H]1CC[C@]2(C(=O)NCCc3cccc(C(=O)NCc4ccc(C(=O)O)s4)c3)CC[C@]3(C)C(CCC4[C@@]5(C)CC[C@H](O)C(C)(C)C5CC[C@]43C)C12 (stereo partly drawn) [Example 70] | 1.6 nM | < 100 nM | 19.7 nM | < 100 nM
2 | C=C(C)[C@@H]1CC[C@]2(C(=O)NCCc3cccc(C(=O)NCc4ccc(OCCCn5ccnc5)c(C(=O)O)c4)c3)CC[C@]3(C)C(CCC4[C@@]5(C)CC[C@H](O)C(C)(C)C5CC[C@]43C)C12 (stereo partly drawn) [Example 242] | 91 nM |  | 41.3 nM | 
3 | C=C(C)[C@@H]1CC[C@]2(C(=O)NCc3cccc(C(=O)NCc4cc(C(=O)O)ccc4F)c3)CC[C@]3(C)C(CCC4[C@@]5(C)CC[C@H](O)C(C)(C)C5CC[C@]43C)C12 (stereo partly drawn) [Example 26] | 200 nM |  | 78.6 nM | < 100 nM
4 | C=C(C)[C@@H]1CC[C@]2(C(=O)NCCc3cccc(C(=O)NCc4ccc(C(=O)N[C@H](Cc5ccc(O)cc5)C(=O)O)cc4)c3)CC[C@]3(C)C(CCC4[C@@]5(C)CC[C@H](O)C(C)(C)C5CC[C@]43C)C12 (stereo partly drawn) [Example 164] | 7 nM |  | 7 nM | 
5 | C=C(C)[C@@H]1CC[C@]2(C(=O)NCCc3cccc(C(=O)NCc4ccc(C(=O)N[C@H](Cc5c[nH]cn5)C(=O)OC)cc4)c3)CC[C@]3(C)C(CCC4[C@@]5(C)CC[C@H](O)C(C)(C)C5CC[C@]43C)C12 (stereo partly drawn) [Example 170] | 5 nM |  | 10 nM | 
6 | C=C(C)[C@@H]1CC[C@]2(C(=O)NCCc3cccc(C(=O)NCc4ccc(C(=O)NCCN(C)C)cc4)c3)CC[C@]3(C)C(CCC4[C@@]5(C)CC[C@H](O)C(C)(C)C5CC[C@]43C)C12 (stereo partly drawn) [Example 135] | 533 nM |  | 70 nM | < 100 nM
7 | C=C(C)[C@@H]1CC[C@]2(C(=O)NCCc3cccc(C(=O)NCC4COCC(C(=O)O)O4)c3)CC[C@]3(C)C(CCC4[C@@]5(C)CC[C@H](O)C(C)(C)C5CC[C@]43C)C12 (stereo partly drawn) [Example 258] | 984 nM |  | 112 nM | 
8 | C=C(C)[C@@H]1CC[C@]2(C(=O)NCc3cccc(C(=O)NCC(F)(F)c4ccc(C(=O)O)cc4)c3)CC[C@]3(C)C(CCC4[C@@]5(C)CC[C@H](O)C(C)(C)C5CC[C@]43C)C12 (stereo partly drawn) [Example 37] | 7.3 nM | < 100 nM | 56.7 nM | < 100 nM
9 | C=C(C)[C@@H]1CC[C@]2(C(=O)NCCc3cccc(C(=O)N[C@@H](CC(C)C)[C@@H](O)CC(=O)O)c3)CC[C@]3(C)C(CCC4[C@@]5(C)CC[C@H](O)C(C)(C)C5CC[C@]43C)C12 (stereo partly drawn) [Example 65] | 83 nM | < 100 nM | 156 nM | 
10 | C=C(C)[C@@H]1CC[C@]2(C(=O)NCc3cc(C(=O)NCCc4cccc(C(=O)OC)c4)ccc3F)CC[C@]3(C)C(CCC4[C@@]5(C)CC[C@H](O)C(C)(C)C5CC[C@]43C)C12 (stereo partly drawn) [Example 98] | 13 nM | < 100 nM | 57.7 nM | < 100 nM
11 | C=C(C)[C@@H]1CC[C@]2(C(=O)NCCc3ccc(O)cc3)CC[C@]3(C)C(CCC4[C@@]5(C)CC[C@H](O)C(C)(C)C5CC[C@]43C)C12 (stereo partly drawn) [Example 111] | 3800 nM |  | 72.2 nM | < 100 nM
12 | C=C(C)[C@@H]1CC[C@]2(C(=O)NCc3cc(C(=O)NCc4cccc(C(=O)O)c4F)ccc3F)CC[C@]3(C)C(CCC4[C@@]5(C)CC[C@H](O)C(C)(C)C5CC[C@]43C)C12 (stereo partly drawn) [Example 186] | 830 nM |  | 120 nM | 
13 | C=C(C)[C@@H]1CC[C@]2(C(=O)NCCc3cccc(C(=O)NCc4ccc(C(=O)N(C)CCN(C)C)cc4)c3)CC[C@]3(C)C(CCC4[C@@]5(C)CC[C@H](O)C(C)(C)C5CC[C@]43C)C12 (stereo partly drawn) [Example 134] | 240 nM |  | 68.7 nM | < 100 nM
14 | C=C(C)[C@@H]1CC[C@]2(C(=O)NCCc3cccc(C(=O)NCc4cccc(C(=O)OC)c4F)c3)CC[C@]3(C)C(CCC4[C@@]5(C)CC[C@H](O)C(C)(C)C5CC[C@]43C)C12 (stereo partly drawn) [Example 74] | 0.8 nM | < 100 nM | 27.6 nM | < 100 nM
15 | C=C(C)[C@@H]1CC[C@]2(C(=O)NCCc3cccc(-c4nc5ccc(C(=O)O)cc5[nH]4)c3)CC[C@]3(C)C(CCC4[C@@]5(C)CC[C@H](O)C(C)(C)C5CC[C@]43C)C12 (stereo partly drawn) [Example 130] | 230 nM |  | 39 nM | 
16 | C=C(C)[C@@H]1CC[C@]2(C(=O)NCCc3cccc(C(=O)NCCc4cccc(C(=O)O)c4)c3)CC[C@]3(C)C(CCC4[C@@]5(C)CC[C@H](O)C(C)(C)C5CC[C@]43C)C12 (stereo partly drawn) [Example 59] | 68 nM | < 100 nM | 66.1 nM | < 100 nM
17 | C=C(CN1CCCC1)[C@@H]1CC[C@]2(C(=O)NCCc3cccc(C(=O)NCc4ccc(C(=O)O)cn4)c3)CC[C@]3(C)C(CCC4[C@@]5(C)CC[C@H](O)C(C)(C)C5CC[C@]43C)C12 (stereo partly drawn) [Example 265] | 172 nM |  | 58 nM | 
18 | C=C(C)[C@@H]1CC[C@]2(C(=O)NCCc3cccc(C(=O)NCCc4ccc(C(=O)O)cc4F)c3)CC[C@]3(C)C(CCC4[C@@]5(C)CC[C@H](O)C(C)(C)C5CC[C@]43C)C12 (stereo partly drawn) [Example 75] | 1.4 nM | < 100 nM | 36.3 nM | < 100 nM
19 | C=C(C)[C@@H]1CC[C@]2(C(=O)NCCc3cccc(C(=O)NCc4ccc(OCCCN5CCN(S(=O)(=O)CC)CC5)c(C(=O)O)c4)c3)CC[C@]3(C)C(CCC4[C@@]5(C)CC[C@H](O)C(C)(C)C5CC[C@]43C)C12 (stereo partly drawn) [Example 243] | 26 nM |  | 17.5 nM | 
20 | C=C(C)[C@@H]1CC[C@]2(C(=O)NCCc3cccc(C(=O)NCc4ccc(C(=O)OC)cn4)c3)CC[C@]3(C)C(CCC4[C@@]5(C)CCC(=O)C(C)(C)C5CC[C@]43C)C12 (stereo partly drawn) [Example 201] | 15.5 nM |  | 28.8 nM | 
21 | C=C(C)[C@@H]1CC[C@]2(C(=O)NCCc3cccc(-c4nnc(-c5ccc(C(=O)O)cn5)[nH]4)c3)CC[C@]3(C)C(CCC4[C@@]5(C)CC[C@H](O)C(C)(C)C5CC[C@]43C)C12 (stereo partly drawn) [Example 254] | 351 nM |  | 69 nM | 
22 | C=C(C)[C@@H]1CC[C@]2(C(=O)NCc3cccc(C(=O)NCC(C)(C)c4cccc(C(=O)O)c4)c3)CC[C@]3(C)C(CCC4[C@@]5(C)CC[C@H](O)C(C)(C)C5CC[C@]43C)C12 (stereo partly drawn) [Example 39] | 5.3 nM | < 100 nM | 40.2 nM | < 100 nM
23 | C=C(C)[C@@H]1CC[C@]2(C(=O)NCCc3cccc(C(=O)NCc4ccc(C(=O)N[C@H](Cc5cc6ccccc6[nH]5)C(=O)OC)cc4)c3)CC[C@]3(C)C(CCC4[C@@]5(C)CC[C@H](O)C(C)(C)C5CC[C@]43C)C12 (stereo partly drawn) [Example 167] | 19 nM |  | 22 nM | 
24 | C=C(C)[C@@H]1CC[C@]2(C(=O)NCc3cc(C(=O)NCc4ccc(C(=O)OC)cc4)ccc3F)CC[C@]3(C)C(CCC4[C@@]5(C)CC[C@H](O)C(C)(C)C5CC[C@]43C)C12 (stereo partly drawn) [Example 100] | 1.3 nM | < 100 nM | 21.5 nM | < 100 nM
25 | C=C(C)[C@@H]1CC[C@]2(C(=O)NCCc3cccc(C(=O)NCc4ccc(C(=O)N[C@H](CO)C(=O)OC)cc4)c3)CC[C@]3(C)C(CCC4[C@@]5(C)CC[C@H](O)C(C)(C)C5CC[C@]43C)C12 (stereo partly drawn) [Example 175] | 4 nM |  | 13 nM | 
26 | C=C(C)[C@@H]1CC[C@]2(C(=O)NCCc3cccc(C(=O)NCCc4ccc(O)cc4)c3)CC[C@]3(C)C(CCC4[C@@]5(C)CC[C@H](O)C(C)(C)C5CC[C@]43C)C12 (stereo partly drawn) [Example 147] | 30 nM |  | 26.6 nM | 
27 | C=C(C)[C@@H]1CC[C@]2(C(=O)NCc3ccc(C(=O)NCCNC(=O)OCc4ccccc4)cc3)CC[C@]3(C)C(CCC4[C@@]5(C)CC[C@H](O)C(C)(C)C5CC[C@]43C)C12 (stereo partly drawn) [Example 53] | 10000 nM |  |  | 
28 | C=C(C)[C@@H]1CC[C@]2(C(=O)NCc3ccc(C(=O)NCCCCCCC(=O)O)cc3)CC[C@]3(C)C(CCC4[C@@]5(C)CC[C@H](O)C(C)(C)C5CC[C@]43C)C12 (stereo partly drawn) [Example 51] | 10000 nM |  |  | 
